Assay results as given in patent US9938335B2, “Glucagon and GLP-1 co-agonist compounds” (Eli Lilly and Company, priority 2015, dated 2018).
Values after ≈ are worked out from the molar mass of the structure shown. Values joined by “and” are separate entries in the source; they are usually repeats but may differ in a detail not shown here. Equal values may be shown once. Read-outs that look alike come from different tables or passages of the source.

Columns and labels:
[1] = Solubility (RP-HPLC and HPLC-SEC, 1 week at 4° C.); format: physicochemical
Experimental: Solubility of compounds of the present invention is measured in an Agilent 1100 HPLC, an Agilent 1200 HPLC and a Nanodrop 2000. The following HPLC columns are used:
(a) RP-HPLC: Waters Symmetry Shield C18, 3.6 um, 4.6×100 mm
(b) HPLC-SEC: Tosoh Biosciences, TSK2000SWXL […]
All peptide concentrations are made at 10 mg/mL in the following:
(a) 10 mM Tris pH 8.0+3 mg/mL m-cresol
(b) 10 mM Tris pH 8.0+3 mg/mL m-cresol+150 mM NaCl
(c) 10 mM Tris pH 8.0+3 mg/mL m-cresol+0.02% Tween-20
5 mL of 10 mg/mL peptide dissolved in 10 mM Tris at pH 8.0 is concentrated to approximately 20 mg/mL using Amicon-ultra 3 kDa MWCO devices. The solution is filtered using Millivex 0.22 μM filters (PVDF membrane) and the final concentration is measured by the NanoDrop spectrometer. This stock solution is used to formulate to the final conditions stated above using 3× m-cresol, 10× NaCl, and 100× Tween-20 stock solutions. A 10 mg/mL PBS solution is also prepared by dissolving directly at 5 mg/mL and concentrating using Amicon-ultra 3 kDa MWCO devices.
Each solution is placed in a refrigerator at 4° C. for 1 week, with analysis by RP-HPLC to assess concentration and HPLC-SEC to assess HMW species formation. Analyses completed at T-0 week and T-1 week.
The solubility of Compounds 1-4 was measured essentially as described in this assay.

hGcg-R [2] = biological target: T1, hGcg-R (Homo sapiens, UniProt P47871); experiment: hGcg-R Binding Assay (SPA radioligand competition, 293HEK membranes); conditions: read-out: Ki, nM ± SEM at the hGcg-R
T1 sequence (P47871 26-477): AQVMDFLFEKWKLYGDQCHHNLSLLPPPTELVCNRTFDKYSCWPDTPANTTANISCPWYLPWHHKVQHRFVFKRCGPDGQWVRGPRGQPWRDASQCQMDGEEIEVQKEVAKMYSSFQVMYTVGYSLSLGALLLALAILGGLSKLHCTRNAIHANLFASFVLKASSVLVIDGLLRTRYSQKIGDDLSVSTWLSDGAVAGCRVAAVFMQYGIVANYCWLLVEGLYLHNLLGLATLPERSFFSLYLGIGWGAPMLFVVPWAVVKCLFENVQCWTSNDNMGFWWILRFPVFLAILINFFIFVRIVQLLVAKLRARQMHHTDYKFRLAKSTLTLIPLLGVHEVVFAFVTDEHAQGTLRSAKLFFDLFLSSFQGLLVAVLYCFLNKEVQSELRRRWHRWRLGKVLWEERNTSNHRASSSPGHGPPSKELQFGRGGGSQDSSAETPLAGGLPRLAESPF

[3] = Pharmacokinetics in cynomolgus monkeys; format: in vivo; conditions: for Cmax: read-out: C0 or Cmax
Experimental: The compounds are administered by a single intravenous or subcutaneous dose of 50 nmole/kg or 250 nmole/kg.
The plasma concentrations of compounds are determined by a LC/MS method. Briefly, a compound of the present invention is extracted from 100% monkey plasma (25 μl) using acetonitrile. Two distinct layers are formed upon centrifugation with the compound located in the liquid layer. An 80 μl aliquot of the supernatant was transferred to a 96-well plate, diluted with 150 μl of water and 25 μl of formic acid. The diluted sample (10 μl) was injected onto a Supelco Analytical Discovery BIO Wide Pore C5-3, 5 cm×1 mm, 3 um column. The column effluent is directed into a Thermo Q-Exactive mass spectrometer for detection and quantitation.

DIO mice (C57BL/6) = experiment: Effects on energy expenditure in DIO mice (indirect calorimetry); format: in vivo, mouse; conditions: for Cumulative Heat (Kcal/kg lean mass/3 day): test article 15 nmol/kg, semaglutide 60 nmol/kg sc every three days
Experimental: Seven to eight months old male DIO mice (C57BL/6) weighing 45-50 g are used in this study to assess the effect of compounds of the present invention on energy metabolism. Animals are individually housed in a temperature-controlled (24° C.) facility with a 12 hour light/dark cycle (lights on 22:00), and free access to food (TD95217)(Teklad) and water. After 2 weeks acclimation to the facility, mice are randomized to treatment groups (N=6/group) based on body weight so each group has similar starting mean body weight. Animals are placed in a PhenoMaster/LabMaster calorimeter (TSE Systems, Chesterfield, Mo.) for 8 days of acclimation.
Heat and […] (RER) are measured by indirect calorimetry as described using an open-circuit calorimetry system. RER is the ratio of the volume of CO2 produced (VCO2) to the volume of O2 consumed (VO2). Heat is calculated with lean body weight considered. The energy expenditure is kcal/kg/3 day and expressed as mean±SEM of 6 mice per group. Statistical significance is assessed by two-way ANOVA followed by Tukey's multiple comparison test.

hGcg-R [4] = biological target: T1, hGcg-R; experiment: Functional activation of hGcg-R in primary human hepatocytes (cAMP); format: cell-based; parameters: stimulating cAMP production at the endogenous Gcg receptors; endogenous in cells; host or cells: cryopreserved primary human hepatocytes; conditions: primary human hepatocytes
Experimental: Primary human hepatocytes are used to determine functional activity of compounds on stimulating cAMP production at the endogenous Gcg receptors. Vials of human primary hepatocytes are frozen in a liquid nitrogen tank. Upon removal, vials are thawed immediately in a water bath having a temperature of 37° C. Cell suspension is then transferred to 50 ml CHRM (Gibco/Life Technologies cat#CM7000 Cryopreserved Hepatocyte Recovery Medium).
The cell suspension is centrifuged at 1,000×g for 10 min. Cell pellets are resuspended in 5 ml of Plating Media after removing the CHRM by aspiration. The Plating Media is prepared by adding entire contents of CM3000 Supplement Packs to 500 ml Williams Media (Gibco/Life Technologies), followed by sterile filtration through a 0.22 μm membrane.
The cell density is counted on hemocytometer, by adding 100 μl of cell suspension to 100 μl Trypan Blue (HyClone Trypan Blue 0.04%, catalog number SV30084.01). The cell suspension is further diluted in the Plating Media to the final cell density of 0.8×10^6 cells per ml. […] 65 ml of the cell suspension is then added to each well of the Collagen coated 96-well plate to final cell density 50,000 cells per well. The cell plate is incubated in a 37° C., 5% CO2 incubator for 3-4 hours.
After 3-4 hours incubation, the media is aspirated and replaced with 100 ml Maintenance Media. The maintenance media is prepared by adding entire contents of CM4000 Supplement Packs to 500 ml Williams Media (Gibco/Life Technologies), followed by sterile filtration through a 0.22 μm membrane. The cell plate is returned to the 37° C., 5% CO2 incubator overnight in preparation for the cAMP assay.
The cell plate is removed from the incubator and the media is removed by gentle aspiration without disturbing the cell monolayer.
cAMP concentration is measured using a HTRF cAMP assay kit (Cisbio): cAMP-d2 conjugate in cell lysis buffer (40 μl) followed by the antibody anti-cAMP-Eu^3+-Cryptate, also in cell lysis buffer (40 μl), is added to the cells of the plate.

[5] = Table 9: single IV 50 nmol/kg, individual animals
[6] = Table 9: single SC 50 nmol/kg, individual animals
[7] = Table 9: single SC 250 nmol/kg, individual animals
[8] = male, cynomolgus monkey, plasma, iv, 50 nmol/kg, Table 9: single IV 50 nmol/kg, mean
[9] = male, cynomolgus monkey, plasma, sc, 50 nmol/kg, Table 9: single SC 50 nmol/kg, individual animals
[10] = male, cynomolgus monkey, plasma, sc, 50 nmol/kg, Table 9: single SC 50 nmol/kg, mean
[11] = male, cynomolgus monkey, plasma, sc, 250 nmol/kg, Table 9: single SC 250 nmol/kg, individual animals
[12] = male, cynomolgus monkey, plasma, sc, 250 nmol/kg, Table 9: single SC 250 nmol/kg, mean

SMILES: CC(C)C[C@H](NC(=O)[C@H](CC(C)C)NC(=O)[C@H](Cc1c[nH]c2ccccc12)NC(=O)[C@H](CCC(=O)O)NC(=O)[C@@H](NC(=O)[C@H](Cc1ccccc1)NC(=O)[C@H](CCC(=O)O)NC(=O)[C@H](CCCCNC(=O)COCCOCCNC(=O)COCCOCCNC(=O)CC[C@H](NC(=O)CCCCCCCCCCCCCCCCCCC(=O)O)C(=O)O)NC(=O)[C@H](C)NC(=O)[C@H](CCCCN)NC(=O)[C@H](CCCCN)NC(=O)[C@H](CCC(=O)O)NC(=O)[C@H](CC(=O)O)NC(=O)[C@H](CC(C)C)NC(=O)[C@H](Cc1ccc(O)cc1)NC(=O)[C@H](CCCCN)NC(=O)[C@H](CO)NC(=O)[C@H](Cc1ccc(O)cc1)NC(=O)[C@H](CC(=O)O)NC(=O)[C@H](CO)NC(=O)[C@@H](NC(=O)[C@H](Cc1ccccc1)NC(=O)[C@@H](NC(=O)CNC(=O)[C@H](CCC(N)=O)NC(=O)C(C)(C)NC(=O)[C@@H](N)Cc1c[nH]cn1)[C@@H](C)O)[C@@H](C)O)C(C)C)C(=O)N[C@@H](CCC(=O)O)C(=O)NCC(=O)NCC(=O)N1CCC[C@H]1C(=O)N[C@@H](CO)C(=O)N[C@@H](CO)C(=O)NCC(N)=O [Compound 2]
- solubility at 1 week ([1]; 10 mM Tris pH 8.0 + 3 mg/mL m-cresol + 0.02% Tween-20, Tris pH 8 + 3 mg/mL m-cresol + 0.02% Tween-20): 10 mg/mL
- solubility at 1 week ([1]; 10 mM Tris pH 8.0 + 3 mg/mL m-cresol + 150 mM NaCl, Tris pH 8 + 3 mg/mL m-cresol + 150 mm NaCl): 10 mg/mL
- solubility at 1 week ([1]; 10 mM Tris pH 8.0 + 3 mg/mL m-cresol, Tris pH 8 + 3 mg/mL m-cresol): 10 mg/mL
- HMW species formation by SEC-HPLC ([1]; 1 week at 4° C.): No observed HMW species formation by SEC-HPLC;
- solubility at 1 week ([1]; PBS pH 7.4, pH 7.4, read-out: solubility in PBS, pH 7.4): 10 mg/mL (≈ 2190 µM)
- visible precipitation or phase separation ([1]; after 1 week storage at 4° C.): No visible precipitation or phase separation observed after 1 week
- Ki (hGcg-R [2]): 17.7 ± 5 nM
- AUC(0-inf) [3, 5]: 93.174 µM·h
- CL/F [3, 5]: 12.7 mL/day/kg and 13 mL/day/kg
- Cmax [3, 5]: 1.1 µM
- T1/2 ([3]; Table 9: single IV 50 nmol/kg, male cynomolgus monkeys, individual animals): 131 h
- CL/F ([3]; Table 9: single IV 50 nmol/kg, mean): 12.7 mL/day/kg
- AUC(0-inf) [3, 6]: 82.792 µM·h
- CL/F [3, 6]: 14.4 mL/day/kg
- T1/2 [3, 6]: 106 h
- Cmax [3, 6]: 0.452 µM
- AUC(0-inf) [3, 7]: 540.175 µM·h
- CL/F [3, 7]: 11 mL/day/kg
- T1/2 [3, 7]: 104 h
- Cmax [3, 7]: 3.62 µM
- AUC(0-inf) ([3]; cynomolgus monkey, plasma, sc, 250 nmol/kg, Table 9: single SC 250 nmol/kg, mean, read-out: AUC0-inf): 485 µM·h
- CL/F ([3]; cynomolgus monkey, plasma, sc, 250 nmol/kg, Table 9: single SC 250 nmol/kg, mean, read-out: CL/F (converted)): 12.5 mL/day/kg
- AUC(0-inf) ([3]; male, cynomolgus monkey, plasma, iv, 50 nmol/kg, Table 9: single IV 50 nmol/kg, individual animals, read-out: AUC0-inf): 94.8 µM·h
- Cmax ([3]; male, cynomolgus monkey, plasma, iv, 50 nmol/kg, Table 9: single IV 50 nmol/kg, individual animals): 1.02 µM
- half-life ([3]; male, cynomolgus monkey, plasma, iv, 50 nmol/kg, Table 9: single IV 50 nmol/kg, male cynomolgus monkeys, individual animals): 88 h
- half-life [3, 8]: 110 h
- AUC(0-inf) ([3]; male, cynomolgus monkey, plasma, iv, 50 nmol/kg, Table 9: single IV 50 nmol/kg, mean, read-out: AUC0-inf): 94 µM·h
- Cmax [3, 8]: 1.06 µM
- Tmax [3, 9]: 24 h
- half-life [3, 9]: 137 h
- AUC(0-inf) ([3]; male, cynomolgus monkey, plasma, sc, 50 nmol/kg, Table 9: single SC 50 nmol/kg, individual animals, read-out: AUC0-inf): 101 µM·h
- Cmax [3, 9]: 0.474 µM
- CL/F ([3]; male, cynomolgus monkey, plasma, sc, 50 nmol/kg, Table 9: single SC 50 nmol/kg, individual animals, read-out: CL/F (converted)): 12 mL/day/kg
- Tmax [3, 10]: ~24 h
- half-life [3, 10]: 122 h
- AUC(0-inf) ([3]; male, cynomolgus monkey, plasma, sc, 50 nmol/kg, Table 9: single SC 50 nmol/kg, mean, read-out: AUC0-inf): 91.9 µM·h
- Cmax [3, 10]: 0.463 µM
- CL/F ([3]; male, cynomolgus monkey, plasma, sc, 50 nmol/kg, Table 9: single SC 50 nmol/kg, mean, read-out: CL/F (converted)): 13.2 mL/day/kg
- Tmax [3, 11]: 12 h
- half-life [3, 11]: 115 h
- AUC(0-inf) ([3]; male, cynomolgus monkey, plasma, sc, 250 nmol/kg, Table 9: single SC 250 nmol/kg, individual animals, read-out: AUC0-inf): 430 µM·h
- Cmax [3, 11]: 3.64 µM
- CL/F ([3]; male, cynomolgus monkey, plasma, sc, 250 nmol/kg, Table 9: single SC 250 nmol/kg, individual animals, read-out: CL/F (converted)): 13.9 mL/day/kg
- Tmax [3, 12]: 12 h
- half-life [3, 12]: 110 h
- Cmax [3, 12]: 3.63 µM
- metabolic rate (DIO mice (C57BL/6); DIO mice, chronic treatment): increased their metabolic rate starting from Week 2
- Cumulative Heat (Kcal/kg lean mass/3 day) (DIO mice (C57BL/6); Day 1 to Day 4): 1746 ± 96 Kcal/kg lean mass/3 day
- Cumulative Heat (Kcal/kg lean mass/3 day) (DIO mice (C57BL/6); Day 4 to Day 7): 1778 ± 132 Kcal/kg lean mass/3 day
- Cumulative Heat (Kcal/kg lean mass/3 day) (DIO mice (C57BL/6); Day 7 to Day 10): 2549 ± 129 Kcal/kg lean mass/3 day
- Cumulative Heat (Kcal/kg lean mass/3 day) (DIO mice (C57BL/6); Day 10 to Day 13): 2568 ± 147 Kcal/kg lean mass/3 day
- EC50 (hGcg-R [4]; cAMP, 1 hour): 159 nM
- cAMP production (hGcg-R [4]; data not shown): increased cAMP production in a dose-dependent manner
